Assay results taken from ChEMBL document CHEMBL1140659, “Respiratory syncytial virus fusion inhibitors. Part 5: Optimization of benzimidazole substitution patterns towards derivatives with improved activity” (Bioorg Med Chem Lett, 2007).

Assays:
[1] = Therapeutic index, ratio of CC50 for HEp2 to EC50 for RSV long A; details: human, HEp2 cells; read-out: Ratio CC50/EC50
[2] = system: Respiratory syncytial virus; test: Antiviral activity against RSV long A with F1 protein K394R mutation in HEp2 cells; format: functional, organism-based
[3] = Cytotoxicity against human HEp2 cells; format: cell-based, HEp-2

Row | SMILES | selectivity ratio [1] | EC50 [2] | CC50 [3]
1 | CC(C)CCn1c(Cn2c(=O)n(C(C)C)c3ccccc32)nc2c(CCN)cccc21 | 17 | 0.23 µM | 3.92 µM
2 | CC(C)CCn1c(Cn2c(=O)n(CC(=O)OC(C)(C)C)c3ccccc32)nc2cc(C#N)ccc21 | 12.6 | 2.55 µM | 32.2 µM
3 | CC(C)CCn1c(Cn2c(=O)n(C)c3ccccc32)nc2cc(-c3nnn(C)n3)ccc21 | 0.012 | 239 µM | 2.97 µM
4 | CC(C)CCn1c(Cn2c(=O)n(CC(=O)OC(C)(C)C)c3ccccc32)nc2cc(C(=N)N)ccc21 | 878 | 0.009 µM | 7.9 µM
5 | C=C(C)n1c(=O)n(Cc2nc3cc(C#N)ccc3n2CCC(C)C)c2ccccc21 | 26 | 0.057 µM | 1.48 µM
6 | CC(C)CCn1c(Cn2c(=O)n(C(C)C)c3ccccc32)nc2cc(C(=O)N(C)C)ccc21 | 1.03 | 24.8 µM | 25.6 µM
7 | CC(C)CCn1c(Cn2c(=O)n(C(C)C)c3ccccc32)nc2ccc(CCN)cc21 | 8.02 | 7.11 µM | 57 µM
8 | CC(C)CCn1c(Cn2c(=O)n(C(C)C)c3ccccc32)nc2ccc(CN)cc21 | 296 | 0.095 µM | 28.1 µM
9 | COC(=O)c1cccc2c1nc(Cn1c(=O)n(C(C)C)c3ccccc31)n2CCC(C)C | 0.213 | 230 µM | 49.2 µM
10 | CNCc1ccc2nc(Cn3c(=O)n(C(C)C)c4ccccc43)n(CCC(C)C)c2c1 | 0.026 | 187 µM | 4.81 µM
11 | CC(=O)NCc1ccc2c(c1)nc(Cn1c(=O)n(C(C)C)c3ccccc31)n2CCC(C)C | 282 | 0.631 µM | 178 µM
12 | CC(C)CCn1c(Cn2c(=O)n(CC(=O)OC(C)(C)C)c3ccccc32)nc2cc(/C(N)=N\O)ccc21 | 1240 | 0.016 µM | 19.8 µM
13 | COC(=O)c1ccc2c(c1)nc(Cn1c(=O)n(C(C)C)c3ccccc31)n2CCC(C)C | 0.15 | 230 µM | 33.7 µM
14 | CC(C)CCn1c(Cn2c(=O)n(C(C)C)c3ccccc32)nc2cc(N)ccc21 | 258 | 0.125 µM | 32.2 µM
15 | CC(C)CCn1c(Cn2c(=O)n(C(C)C)c3ccccc32)nc2cc(CC#N)ccc21 | 114 | 0.117 µM | 13.3 µM
16 | CC(C)CCn1c(Cn2c(=O)n(C(C)C)c3ccccc32)nc2cc(C(C)(C)N)ccc21 | 4.71 | 0.694 µM | 3.27 µM
17 | CC(C)CCn1c(Cn2c(=O)n(C(C)C)c3ccccc32)nc2cc(CF)ccc21 | 793 | 0.047 µM | 37.3 µM
18 | CC(C)CCn1c(Cn2c(=O)n(C(C)C)c3ccccc32)nc2ccc(CN(C)C)cc21 | 0.026 | 182 µM | 26.7 µM
19 | CC(C)CCn1c(Cn2c(=O)n(C(C)C)c3ccccc32)nc2c(CCCN)cccc21 | 0.011 | 213 µM | 2.34 µM

Row | SMILES | selectivity ratio [1] | EC50 [2] | CC50 [3]
20 | CC(C)CCn1c(Cn2c(=O)n(C(C)C)c3ccccc32)nc2cc(C(N)=O)ccc21 | 141 | 0.166 µM | 23.4 µM
21 | CC(C)CCn1c(Cn2c(=O)n(C(C)C)c3ccccc32)nc2cc(CN)ccc21 | 1960 | 0.002 µM | 3.92 µM
22 | N=C(N)c1ccc2nc(Cc3nc4ccc(C(=N)N)cc4[nH]3)[nH]c2c1 | – | 100 µM | –
23 | CC(C)CCn1c(Cn2c(=O)n(C(C)C)c3ccccc32)nc2c(CCC#N)cccc21 | 0.096 | 234 µM | 2.24 µM
24 | C=Cc1ccc2c(c1)nc(Cn1c(=O)n(C(C)C)c3ccccc31)n2CCC(C)C | 10.3 | 0.63 µM | 6.52 µM
25 | CC(C)CCn1c(Cn2c(=O)n(C(C)C)c3ccccc32)nc2cc(-c3ncon3)ccc21 | 10.3 | 21.6 µM | 223 µM
26 | CC(C)CCn1c(Cn2c(=O)n(C(C)C)c3ccccc32)nc2c(CN)cccc21 | 9.78 | 0.715 µM | 7 µM
27 | CC(C)CCn1c(Cn2c(=O)n(C(C)C)c3ccccc32)nc2cccc(N=[N+]=[N-])c21 | 15.6 | 3.7 µM | 57.9 µM
28 | CC(C)CCn1c(Cn2c(=O)n(C(C)C)c3ccccc32)nc2ccc(C#N)cc21 | 228 | 0.044 µM | 10 µM
29 | O=c1n(Cc2nc3ccccc3n2CCCCO)c2cnccc2n1C1CC1 | – | > 20 µM | –
30 | C=C(C)n1c(=O)n(Cc2nc3cc(C(=N)N)ccc3n2CCC(C)C)c2ccccc21 | 2700 | 0.004 µM | 10.8 µM
31 | C=C(C)n1c(=O)n(Cc2nc3cc(C(C)=O)ccc3n2CCC(C)C)c2ccccc21 | 4.1 | 0.179 µM | 0.74 µM
32 | CC(C)CCn1c(Cn2c(=O)n(C(C)C)c3ccccc32)nc2cc(-c3nn[nH]n3)ccc21 | 0.009 | 225 µM | 2 µM
33 | CC(C)CCn1c(Cn2c(=O)n(C(C)C)c3ccccc32)nc2cc(C(=O)O)ccc21 | 0.07 | 238 µM | 17.3 µM
34 | CC(=O)c1ccc2c(c1)nc(Cn1c(=O)n(C)c3ccccc31)n2CCC(C)C | 39.8 | 0.193 µM | 5.2 µM
35 | CC(C)CCn1c(Cn2c(=O)n(C(C)C)c3ccccc32)nc2cc(CO)ccc21 | 632 | 0.05 µM | 31.6 µM
36 | CC(C)CCn1c(Cn2c(=O)n(C(C)C)c3ccccc32)nc2ccc(C(N)=O)cc21 | 0.406 | 123 µM | 49.9 µM
37 | CC(C)CCn1c(Cn2c(=O)n(C(C)C)c3ccccc32)nc2cc(CN(C)C)ccc21 | 0.031 | 183 µM | 5.65 µM
38 | CC(C)CCn1c(Cn2c(=O)n(C(C)C)c3ccccc32)nc2ccc(C(=O)O)cc21 | 0.525 | 238 µM | 125 µM

Row | SMILES | selectivity ratio [1] | EC50 [2] | CC50 [3]
39 | COCc1cccc2c1nc(Cn1c(=O)n(C(C)C)c3ccccc31)n2CCC(C)C | 3.56 | 7.5 µM | 26.7 µM
40 | COC(=O)c1cccc2nc(Cn3c(=O)n(C(C)C)c4ccccc43)n(CCC(C)C)c12 | 0.11 | 230 µM | 25.3 µM
41 | CC(C)CCn1c(Cn2c(=O)n(C(C)C)c3ccccc32)nc2ccc(CO)cc21 | 609 | 0.134 µM | 81.6 µM
42 | CCc1ccc2c(c1)nc(Cn1c(=O)n(C(C)C)c3ccccc31)n2CCC(C)C | 26.8 | 0.692 µM | 18.5 µM
43 | CC(C)CCn1c(Cn2c(=O)n(C(C)C)c3ccccc32)nc2cc(CCN)ccc21 | 2.54 | 4.33 µM | 11 µM
44 | CC(C)CCn1c(Cn2c(=O)n(C(C)C)c3ccccc32)nc2c(CO)cccc21 | 26.8 | 0.82 µM | 22 µM
45 | C=C(C)n1c(=O)n(Cc2nc3cc(/C(N)=N\O)ccc3n2CCC(C)C)c2ccccc21 | 694 | 0.005 µM | 3.47 µM
46 | C=C(C)n1c(=O)n(Cc2nc3ccccc3n2CCC(C)C)c2ccccc21 | 6160 | 0.004 µM | 24.6 µM
47 | CC(C)CCn1c(Cn2c(=O)n(C(C)C)c3ccccc32)nc2cc(CNC3CC3)ccc21 | 47.3 | 0.363 µM | 17.2 µM
48 | CC(C)CCn1c(Cn2c(=O)n(CC(=O)O)c3ccccc32)nc2cc(C(=N)N)ccc21 | 5570 | 0.031 µM | 173 µM
49 | CC(C)CCn1c(Cn2c(=O)n(C(C)C)c3ccccc32)nc2cccc(CO)c21 | 1 | 246 µM | 246 µM
50 | CC(C)CCn1c(Cn2c(=O)n(C(C)C)c3ccccc32)nc2c(CC#N)cccc21 | 0.482 | 241 µM | 116 µM
51 | CNCc1ccc2c(c1)nc(Cn1c(=O)n(C(C)C)c3ccccc31)n2CCC(C)C | 26 | 0.057 µM | 1.48 µM
52 | CC(C)CCn1c(Cn2c(=O)n(C(C)C)c3ccccc32)nc2cc(C#N)ccc21 | 16.6 | 0.476 µM | 7.93 µM
53 | CC(C)CCn1c(Cn2c(=O)n(C(C)C)c3ccccc32)nc2cccc(CN)c21 | 0.058 | 192 µM | 11 µM
54 | CC(C)CCn1c(Cn2c(=O)n(C(C)C)c3ccccc32)nc2cc(CNS(C)(=O)=O)ccc21 | 42.4 | 0.725 µM | 30.8 µM
55 | CC(C)CCn1c(Cn2c(=O)n(C(C)C)c3ccccc32)nc2cc(Br)ccc21 | 1010 | 0.018 µM | 18.1 µM
56 | C=C(C)n1c(=O)n(Cc2nc3cc(C(=O)O)ccc3n2CCC(C)C)c2ccccc21 | 0.11 | 264 µM | 30 µM
57 | CC(C)CCn1c(Cn2c(=O)n(C(C)C)c3ccccc32)nc2cc(/C(N)=N\O)ccc21 | 82.2 | 0.111 µM | 9.14 µM
